ChEMBL document CHEMBL4828719, “H2dpa derivatives containing pentadentate ligands: An acyclic adjuvant potentiates meropenem activity in vitro and in vivo against metallo-β-lactamase-producing Enterobacterales” (Eur J Med Chem, 2021)
Values after ≈ are worked out from the molar mass of the structure shown. Active and inactive are the calls of the source. No cut-off for these calls is given here.

How the values were obtained:
[1] = tested on: Klebsiella pneumoniae; assay: Antibiotic adjuvant activity against meropenem-treated NDM-producing carbapenem resistant Klebsiella pneumoniae infected in BALB/c mouse sepsis model assessed as mouse rescue at 10 mg/kg, ip in the presence of meropenem measured after 48 hrs; type: functional
[2] = tested on: Klebsiella pneumoniae; assay: Antibacterial activity against NDM-producing carbapenem resistant Klebsiella pneumoniae infected in BALB/c mouse sepsis model assessed as animal survival at 10 mg/kg, ip measured after 48 hrs; type: functional, organism-based
[3] = tested on: Escherichia coli; assay: Antibacterial activity against IMP-4 producing Escherichia coli DH5 alpha assessed as bacterial growth at 8 ug/ml incubated for 16 to 20 hrs by CLSI based microdilution method; type: functional; details: dose 8 µg/ml; time 16-20 hrs
[4] = Zinc chelation-dependent inhibition of NDM-1 (unknown origin) expressed in Escherichia coli BL21 (DE3) using meropenem as substrate preincubated with enzyme for 5 to 10 mins followed by substrate addition
[5] = Zinc chelation-dependent inhibition of VIM-2 (unknown origin) expressed in Escherichia coli BL21 (DE3) using nitrocefin as substrate preincubated with enzyme for 5 to 10 mins followed by substrate addition
[6] = Zinc chelation-dependent inhibition of IMP-4 (unknown origin) expressed in Escherichia coli BL21 (DE3) using imipenem as substrate preincubated with enzyme for 5 to 10 mins followed by substrate addition
[7] = tested on: Escherichia coli; assay: Antibacterial activity against NDM-1 producing Escherichia coli DH5alpha assessed as decrease in bacterial growth incubated for 16 to 20 hrs by CLSI based microdilution method; type: functional; details: DH5[alpha], time 16-20 hrs
[8] = tested on: Enterobacter cloacae; assay: Antibacterial activity against MBL producing Enterobacter cloacae isolates assessed as inhibition of bacterial growth at 64 ug/ml incubated for 16 to 20 hrs by CLSI based microdilution method; type: functional, organism-based; details: dose 64.0 µg/ml, time 16-20 hrs
[9] = tested on: Escherichia coli; assay: Antibacterial activity against MBL producing Escherichia coli isolates assessed as inhibition of bacterial growth at 64 ug/ml incubated for 16 to 20 hrs by CLSI based microdilution method; type: functional, organism-based; details: dose 64.0 µg/ml, time 16-20 hrs
[10] = tested on: Klebsiella oxytoca; assay: Antibacterial activity against MBL producing Klebsiella oxytoca isolates assessed as inhibition of bacterial growth at 64 ug/ml incubated for 16 to 20 hrs by CLSI based microdilution method; type: functional, organism-based; details: dose 64.0 µg/ml, time 16-20 hrs
[11] = tested on: Enterobacter hormaechei; assay: Antibacterial activity against MBL producing Enterobacter hormaechei isolates assessed as inhibition of bacterial growth at 64 ug/ml incubated for 16 to 20 hrs by CLSI based microdilution method; type: functional, organism-based; details: dose 64.0 µg/ml, time 16-20 hrs
[12] = tested on: Escherichia coli; assay: Antibiotic adjuvant activity against meropenem-treated VIM-1 producing Escherichia coli DH5 alpha assessed as inhibition of bacterial growth at 8 ug/ml incubated for 16 to 20 hrs in the presence of meropenem and 1 to 10 uM zinc sulfate by CLSI based microdilution method; type: functional, organism-based; details: dose 8.0 µg/ml, time 16-20 hrs
[13] = Toxicity in sheep RBC assessed as induction of hemolysis measured after 1 hr; type: tissue-based, Ovis aries, Erythrocyte; details: sheep red blood cells
[14] = tested on: GES1; assay: Cytotoxicity against human GES1 cells assessed as live cells by measuring green fluorescence at 32 ug/ml measured after 24 hrs by calceinAM/propidium iodide staining based fluorescence microscopy; type: cell-based; details: ges1, 24 h, dose 32 µg/ml
[15] = Acute toxicity in BALB/c mouse assessed as pathological changes in liver at 50 mg/kg, ip administered as single dose measured after 24 hrs by hematoxylin and eosin staining based assay; type: organism-based; details: in vivo
[16] = Acute toxicity in BALB/c mouse assessed as pathological changes in spleen at 50 mg/kg, ip administered as single dose measured after 24 hrs by hematoxylin and eosin staining based assay; type: organism-based; details: in vivo
[17] = Acute toxicity in BALB/c mouse assessed as change in WBC count at 50 mg/kg, ip administered as single dose measured after 24 hrs; type: organism-based; details: in vivo
[18] = Acute toxicity in BALB/c mouse assessed as change in RBC count at 50 mg/kg, ip administered as single dose measured after 24 hrs; type: organism-based; details: in vivo
[19] = Acute toxicity in BALB/c mouse assessed as change in mean corpuscular volume at 50 mg/kg, ip administered as single dose measured after 24 hrs; type: organism-based; details: in vivo
[20] = Acute toxicity in BALB/c mouse assessed as change in platelet count at 50 mg/kg, ip administered as single dose measured after 24 hrs; type: organism-based; details: in vivo
[21] = Acute toxicity in BALB/c mouse assessed as change in albumin level in serum at 50 mg/kg, ip administered as single dose measured after 24 hrs; type: organism-based; details: in vivo
[22] = Non competitive inhibition of NDM-1 (unknown origin) assessed as inhibition of substrate hydrolysis by measuring decrease in Vmax using meropenem as substrate preincubated with enzyme for 5 mins followed by substrate addition by Lineweaver-Burk plot analysis
[23] = tested on: Escherichia coli; assay: Antibiotic adjuvant activity against meropenem-treated IMP-4 producing Escherichia coli DH5 alpha assessed as bacterial growth at 8 ug/ml incubated for 16 to 20 hrs in the presence of meropenem by CLSI based microdilution method; type: functional; details: dose 8 µg/ml; time 16-20 hrs
[24] = tested on: Escherichia coli; assay: Antibacterial activity against NDM-1 producing Escherichia coli DH5 alpha assessed as bacterial growth at 8 ug/ml incubated for 16 to 20 hrs by CLSI based microdilution method; type: functional; details: dose 8 µg/ml; time 16-20 hrs
[25] = tested on: Escherichia coli; assay: Antibiotic adjuvant activity against meropenem-treated NDM-1 producing Escherichia coli DH5 alpha assessed as bacterial growth at 8 ug/ml incubated for 16 to 20 hrs in the presence of meropenem by CLSI based microdilution method; type: functional; details: dose 8 µg/ml; time 16-20 hrs
[26] = tested on: Escherichia coli; assay: Antibiotic adjuvant activity against meropenem-treated NDM-1 producing Escherichia coli DH5 alpha assessed as inhibition of bacterial growth at 8 ug/ml incubated for 16 to 20 hrs in the presence of meropenem and 1 to 10 uM zinc sulfate by CLSI based microdilution method; type: functional, organism-based; details: dose 8.0 µg/ml, time 16-20 hrs
[27] = tested on: Escherichia coli; assay: Antibiotic adjuvant activity against meropenem-treated NDM-1 producing Escherichia coli DH5 alpha assessed as inhibition of bacterial growth at 8 ug/ml incubated for 16 to 20 hrs in the presence of meropenem and 100 uM zinc sulfate by CLSI based microdilution method; type: functional, organism-based; details: dose 8.0 µg/ml, time 16-20 hrs
[28] = tested on: Klebsiella pneumoniae; assay: Antibacterial activity against NDM-producing carbapenem resistant Klebsiella pneumoniae infected in BALB/c mouse sepsis model assessed as dilated and congested central vein with neutrophil cell infiltration within the red pulp of the spleen at 10 mg/kg, ip observed for 2 days by HE staining based assay; type: functional, organism-based; details: time 2.0 day
[29] = tested on: Klebsiella pneumoniae; assay: Antibiotic adjuvant activity against meropenem-treated NDM-producing carbapenem resistant Klebsiella pneumoniae infected in BALB/c mouse sepsis model assessed as complete liver lobule structure with radially arranged hepatic cords and visible central veins at 10 mg/kg, ip in the presence of meropenem observed for 2 days by HE staining based assay; type: functional, organism-based; details: time 2.0 day
[30] = tested on: Klebsiella pneumoniae; assay: Antibiotic adjuvant activity against meropenem-treated NDM-producing carbapenem resistant Klebsiella pneumoniae infected in BALB/c mouse sepsis model assessed as reduction in neutrophil infiltration in red pulp of spleen at 10 mg/kg, ip in the presence of meropenem observed for 2 days by HE staining based assay; type: functional, organism-based; details: time 2.0 day
[31] = tested on: Escherichia coli; assay: Synergistic antibacterial activity against VIM-1 producing Escherichia coli DH5alpha assessed as fractional inhibitory concentration index incubated for 16 to 20 hrs in presence of meropenem by checkerboard assay; type: functional, DH5[alpha]; details: time 16-20 hrs
[32] = tested on: Escherichia coli; assay: Antibiotic adjuvant activity against NDM-1 producing Escherichia coli DH5alpha assessed as potentiation of meropenem-induced antibacterial activity by measuring fold reduction in meropenem MIC at 16 ug/ml incubated for 16 to 20 hrs by checkerboard assay; type: functional, DH5[alpha]; details: dose 16 µg/ml; time 16-20 hrs

SMILES: C[C@@H](C(=O)O)N(Cc1cccc(C(=O)O)n1)Cc1cccc(C(=O)O)n1
- Activity [1]: 83%
- Activity [2]: inactive
- Activity [3]: 95%
- IC50 [4]: 1690 nM
- IC50 [5]: 1540 nM
- IC50 [6]: 4170 nM
- MIC [7]: 128 µg/mL (≈ 356 µM)
- Activity [8]: inactive
- Activity [9]: inactive
- Activity [10]: inactive
- Activity [11]: inactive
- Activity [12]: Active
- HC50 at 1 h [13]: > 1020 µg/mL
- Activity [14]: Non-Toxic
- Activity [15]: Non-Toxic
- Activity [16]: Non-Toxic
- Activity [17]: Non-Toxic
- Activity [18]: Non-Toxic
- Activity [19]: Non-Toxic
- Activity [20]: Non-Toxic
- Activity [21]: Non-Toxic
- Ki [22]: 1700 nM
- Activity [23]: <10%
- Activity [24]: 95%
- Activity [25]: <10%
- Activity [26]: Active
- Activity [27]: inactive
- Activity [28]: inactive
- Activity [29]: Active
- Activity [30]: Active
- fractional inhibitory concentration index (FICI) [31]: 0.07
- fold change (FC) [32]: >1000

SMILES: C[C@H](C(=O)O)N(Cc1cccc(C(=O)O)n1)Cc1cccc(C(=O)O)n1
- Activity [1]: 83%
- Activity [2]: inactive
- Activity [3]: 95%
- IC50 [4]: 1600 nM
- IC50 [5]: 1560 nM
- IC50 [6]: 4400 nM
- MIC [7]: 128 µg/mL (≈ 356 µM)
- Activity [8]: inactive
- Activity [9]: inactive
- Activity [10]: inactive
- Activity [11]: inactive
- Activity [12]: Active
- HC50 at 1 h [13]: > 1020 µg/mL
- Activity [14]: Non-Toxic
- Activity [15]: Non-Toxic
- Activity [16]: Non-Toxic
- Activity [17]: Non-Toxic
- Activity [18]: Non-Toxic
- Activity [19]: Non-Toxic
- Activity [20]: Non-Toxic
- Activity [21]: Non-Toxic
- Ki [22]: 1590 nM
- Activity [23]: <10%
- Activity [24]: 95%
- Activity [25]: <10%
- Activity [26]: Active
- Activity [27]: inactive
- Activity [28]: inactive
- Activity [29]: Active
- Activity [30]: Active
- fractional inhibitory concentration index (FICI) [31]: 0.07
- fold change (FC) [32]: >1000
